These molecules were tested against human GPR120 (Homo sapiens (Human), UniProt Q5NUL3) (assay: GPR120 pERK AlphaScreen SureFire Assay (human GPR120 pERK assay)). Settings: CHO cells stably transfected with short form of human GPR120.
Format: cell-based
Source text: GPR120 activity was monitored by measuring phosphorylation of ERK (pERK), since G protein receptors are known to activate the ERK signaling cascade either directly and/or through recruitment of arrestin that serves as a scaffold for downstream signaling events.
GPR120 pERK AlphaScreen SureFire Assay
The human and mouse GPR120-mediated intracellular phosphorylated ERK assays were established using CHOA12 cells stably transfected with the short form of human or mouse GPR120 receptor. Cells were cultured in growth medium consisting of F-12 media (Invitrogen Cat. #11765) with 5% Charcoal/Dextran FBS (Invitrogen Cat. #12676-029), 500 μg/mL GENETICIN® (Life Technologies Cat. #10131-027) and 250 μg/mL Zeocin (Invitrogen Cat. #R250-01). Cells were cryo-preserved at a concentration of 2×10^7 cells/mL, in 90% Charcoal/Dextran FBS and 10% DMSO, and frozen in liquid nitrogen at a low passage number.
For the pERK assay, 2×10^7 cells/mL cryopreserved human and mouse cells were thawed rapidly in a 37° C. water bath and added to a T-225 flask containing 50 mL growth medium. The flasks were placed in a tissue culture incubator overnight (37° C., 5% CO2). The next day, cells were harvested with trypsin (Gibco Cat. #25300-054), resuspended in serum-containing growth medium and counted using a Cellometer and volume adjusted to a concentration of 0.6×10^6 cells/mL. Cells were plated into 384-well clear bottom tissue culture plates (BD Cat. #353962) at 50 μL/well, for a density of 30,000 cells/well using a MULTIDROP® and incubated for 16-18 hours (overnight) at 37° C. with 5% CO2. The next day, cells were serum starved in 30 μL of F-12 media without any serum or antibiotics for 2 hours at 37° C.
Test compounds were 3-fold, 11-point serially diluted in DMSO in a REMP assay plate (Matrix Cat. #4307) by Tecan and 5 μL was transferred into an ECHO source plate (Labcyte Cat. #LC-0200). Cells were then stimulated with 50 nL of compound dilutions using ECHO liquid handler for 7 min at 37° C. Compounds ranged from final assay concentrations of 33.33 μM to 0.56 nM.
The media was then dumped and cells lysed with 20 μL of 1× Lysis buffer from the AlphaScreen SureFire Phospho-ERK 1/2 Kit (Perkin Elmer Cat. #6760617M). The lysis buffer was diluted 5-fold with water before use. The plate was agitated on a shaker for 10 min after which 2 μL was transferred into a 384-well white proxiplate (Perkin Elmer Cat. #6008289). The SureFire assay reagent mix was prepared by mixing 60 parts Reaction Buffer, 10 parts Activation Buffer, 1 part Donor Beads, 1 part Acceptor Beads (Perkin Elmer Cat. #TGRES10K). 3.5 μL/well of this reagent mix was manually added to the proxiplate with a multichannel pipettor. Plates were spun down at 1000 rpm for 2 min, followed by light-protected incubation at room temperature for 2 hours. The plates were read on the Alpha-technology compatible Envision multilabel plate reader using AlphaScreen protocol according to manufacturer's specifications. The agonist effect of compounds was expressed as 100×(average sample-average blank)/(average total-average blank) where sample is the luminescence activity in the presence of test compound, blank is equal to the luminescence activity in the presence of DMSO control and the total is signal induced by 50 μM linolenic acid as reference compound. Activation data for the test compound over a range of concentrations was plotted as percentage activation of the test compound (100%=maximum response). After correcting for background, EC50 values were determined. The EC50 is defined as the concentration of test compound which produces 50% of the maximal response and was quantified using the 4 parameter logistic equation to fit the data.
The human and mouse GPR120-mediated intracellular phosphorylated ERK assays were also established using CHO-K1 cells stably transfected with the short form of human or mouse GPR120 receptor. […]

human GPR120, sequence (Q5NUL3 whole entry): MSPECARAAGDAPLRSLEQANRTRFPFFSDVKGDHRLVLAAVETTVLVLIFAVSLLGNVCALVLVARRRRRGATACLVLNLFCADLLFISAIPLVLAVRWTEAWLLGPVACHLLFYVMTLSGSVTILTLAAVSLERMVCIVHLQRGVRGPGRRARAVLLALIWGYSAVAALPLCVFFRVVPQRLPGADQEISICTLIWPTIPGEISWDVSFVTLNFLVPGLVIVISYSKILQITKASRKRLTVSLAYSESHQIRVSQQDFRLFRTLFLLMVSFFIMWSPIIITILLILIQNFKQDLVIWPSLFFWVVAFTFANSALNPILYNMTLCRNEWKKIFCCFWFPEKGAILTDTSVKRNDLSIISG

| EC50 | Structure (SMILES) |
| --- | --- |
| 2810 nM | CC(C)Oc1ccc(F)c(-c2ccc(OC[C@H]3C[C@H]3C(=O)O)cc2)c1 (single isomer, unassigned) [Example 7] |
| 250 nM | CC(C)Oc1ccc(F)c(-c2ccc(OC[C@H]3C[C@@H]3C(=O)O)cc2)c1 (single isomer, unassigned) [Example 2] |
| 1430 nM | COc1ccc(OC(F)(F)F)cc1-c1ccc(OC[C@@H]2C[C@H]2C(=O)O)cc1 (racemic) [Example 71, Trans-2-(((2′-methoxy-5′-(trifluoromethoxy)-[1,1′-biphenyl]-4-yl)oxy)methyl)cyclopropanecarboxylic acid] |
| 640 nM | CC(C)Oc1ccc(F)c(-c2ccc(CC[C@@H]3C[C@H]3C(=O)O)cc2)c1 (single isomer, unassigned) [Example 31] |
| 680 nM | O=C(O)[C@@H]1C[C@H]1COc1ccc(-c2cc(C(F)(F)F)ccc2F)cc1 (racemic) [Example 123, Trans-2-(((2′-fluoro-5′-(trifluoromethyl)-[1,1′-biphenyl]-4-yl)oxy)methyl)cyclopropanecarboxylic acid] |
| 370 nM | CC(C)Oc1ccc(F)c(-c2ccc(OC[C@@H]3C[C@H]3C(=O)O)cc2)c1 (racemic) [Example 1, Trans-2-(((2′-fluoro-5′-isopropoxy-[1,1′-biphenyl]-4-yl)oxy)methyl) cyclopropanecarboxylic acid] |
| 660 nM | CCOc1ccc(F)c(-c2ccc(OC[C@@H]3C[C@H]3C(=O)O)cc2)c1 (racemic) [Example 68, Trans-2-(((5′-ethoxy-2′-fluoro-[1,1′-biphenyl]-4-yl)oxy)methyl) cyclopropanecarboxylic acid] |
| 620 nM | CC(C)Oc1cc(Cl)cc(-c2ccc(OC[C@@H]3C[C@H]3C(=O)O)cc2)c1 (racemic) [Example 120, Trans-2-(((3′-chloro-5′-isopropoxy-[1,1′-biphenyl]-4-yl)oxy)methyl) cyclopropanecarboxylic acid] |
| 220 nM | CC(C)Oc1ccc(F)c(-c2ccc(OC[C@@H]3C[C@H]3C(=O)O)c(Cl)c2)c1 (racemic) [Example 45, Trans-2-(((3-chloro-2′-fluoro-5′-isopropoxy-[1,1′-biphenyl]-4-yl)oxy)methyl)cyclopropanecarboxylic acid] |
| 180 nM | CC(C)Oc1ccc(F)c(-c2ccc(OC[C@@H]3C[C@H]3C(=O)O)c(F)c2)c1 (single isomer, unassigned) [Example 63] |
| 1060 nM | CC(C)Oc1cc(F)cc(-c2ccc(OC[C@@H]3C[C@H]3C(=O)O)cc2)c1 (racemic) [Example 55, Trans-2-(((3′-fluoro-5′-isopropoxy-[1,1′-biphenyl]-4-yl)oxy)methyl) cyclopropanecarboxylic acid] |
| 470 nM | O=C(O)[C@@H]1C[C@@H]1COc1ccc(-c2cc(Oc3ccccc3)ccc2F)cc1 (racemic) [Example 4, Cis-2-(((2′-fluoro-5′-phenoxy-[1,1′-biphenyl]-4-yl)oxy)methyl)cyclopropanecarboxylic acid] |
| 2110 nM | O=C(O)[C@@H]1C[C@@H]1COc1ccc(-c2cc(Oc3ccccc3)ccc2F)cc1 (single isomer, unassigned) [Example 5] |
| 310 nM | O=C(O)[C@@H]1C[C@H]1COc1ccc(-c2cc(Oc3ccc(F)c(F)c3)ccc2F)cc1 (racemic) [Example 91, Trans-2-(((5′-(3,4-difluorophenoxy)-2′-fluoro-[1,1′-biphenyl]-4-yl)oxy)methyl) cyclopropanecarboxylic acid] |

Further lines, the molecule ahead of its results:

| Structure (SMILES) | EC50 |
| --- | --- |
| COc1cc(OC(C)C)cc(-c2ccc(OC[C@@H]3C[C@H]3C(=O)O)cc2)c1 (racemic) [Example 117, Trans-2-(((3′-isopropoxy-5′-methoxy-[1,1′-biphenyl]-4-yl)oxy)methyl) cyclopropanecarboxylic acid] | 1110 nM |
| CCSc1cccc(-c2ccc(CC[C@@H]3C[C@H]3C(=O)O)cc2)c1 (racemic) [Example 38, Trans-2-(2-(3′-(ethylthio)-[1,1′-biphenyl]-4-yl)ethyl)cyclopropanecarboxylic acid] | 3240 nM |
| COc1ccc(OC(F)(F)F)cc1-c1ccc(CC[C@@H]2C[C@H]2C(=O)O)cc1 (racemic) [Example 79, Trans-2-(2-(2′-methoxy-5′-(trifluoromethoxy)-[1,1′-biphenyl]-4-yl)ethyl)cyclopropanecarboxylic acid] | 1440 nM |
| COc1cc(-c2cc(Oc3cccc(F)c3)ccc2F)ccc1OC[C@@H]1C[C@H]1C(=O)O (relative stereo) [Example 99, Trans-2-(((2′-fluoro-5′-(3-fluorophenoxy)-3-methoxy-[1,1′-biphenyl]-4-yl)oxy)methyl) cyclopropanecarboxylic acid] | 1140 nM |
| O=C(O)[C@H]1CC1COc1ccc(-c2cc(Oc3cccc(F)c3)ccc2F)cc1F (some centres unmarked) [Example 98] | 200 nM |
| O=C(O)[C@@H]1C[C@H]1COc1ccc(-c2cc(Oc3ccccc3)cnc2Cl)cc1 (racemic) [Example 110, Trans-2-((4-(2-chloro-5-phenoxypyridin-3-yl)phenoxy)methyl)cyclopropanecarboxylic acid] | 430 nM |
| Cc1cc(-c2ccc(OC[C@@H]3C[C@H]3C(=O)O)cc2)n(-c2ccc(Cl)cc2)n1 (racemic) [Example 82, Trans-2-((4-(1-(4-chlorophenyl)-3-methyl-1H-pyrazol-5-yl)phenoxy)methyl) cyclopropanecarboxylic acid] | 4960 nM |
| COc1cc(OC(F)(F)F)cc(-c2ccc(OC[C@@H]3C[C@H]3C(=O)O)cc2)c1 (racemic) [Example 74, Trans-2-(((3′-methoxy-5′-(trifluoromethoxy)-[1,1′-biphenyl]-4-yl)oxy)methyl)cyclopropanecarboxylic acid] | 610 nM |
| Cc1ccc(Oc2cc(F)c(F)c(-c3ccc(OCC4CC4C(=O)O)c(F)c3)c2)cc1F (single isomer, unassigned) [Example 108] | 360 nM |
| O=C(O)[C@@H]1C[C@H]1COc1ccc(-c2cnn(Cc3ccccc3)c2)cc1 (racemic) [Example 83, Trans-2-((4-(1-benzyl-1H-pyrazol-4-yl)phenoxy)methyl)cyclopropanecarboxylic acid] | 3050 nM |
| CC(C)Oc1ccc(Cl)c(-c2ccc(OC[C@@H]3C[C@H]3C(=O)O)c(F)c2)c1 (racemic) [Example 18, Trans-2-(((2′-chloro-3-fluoro-5′-isopropoxy-[1,1′-biphenyl]-4yl)oxy)methyl) cyclopropanecarboxylic acid] | 210 nM |
| COc1ncc(Cl)cc1-c1ccc(CC[C@@H]2C[C@H]2C(=O)O)cc1 (racemic) [Example 78, Trans-2-(4-(5-chloro-2-methoxypyridin-3-yl)phenethyl) cyclopropanecarboxylic acid] | 6090 nM |
| CC(C)Oc1ccc(F)c(-c2ccc(OC[C@@H]3C[C@H]3C(=O)O)c(C(F)(F)F)c2)c1 (racemic) [Example 88, Trans-2-(((2′-fluoro-5′-isopropoxy-3-(trifluoromethyl)-[1,1′-biphenyl]-4-yl)oxy)methyl) cyclopropanecarboxylic acid] | 180 nM |
| CC(C)Oc1ccc(F)c(-c2ccc(C[C@H]3C[C@@H]3CC(=O)O)cc2)c1 (single isomer, unassigned) [Example 36, Trans-(2-((2′-fluoro-5′-isopropoxy-[1,1′-biphenyl]-4-yl)methyl)cyclopropyl)acetic acid] | 60 nM |
| CC(C)Oc1cc(F)c(F)c(-c2ccc(OC[C@@H]3C[C@H]3C(=O)O)c(F)c2)c1 (single isomer, unassigned) [Example 66] | 320 nM |

Source: patent US9938222B2 (BRISTOL-MYERS SQUIBB COMPANY, priority 2014, dated 2018)
